Some test systems named below: 786-0 renal; COLO 205 colon; HCT-15 colon; LOX IMVI melanoma; RXF 393 renal; SF-295 CNS; SK-OV-3 ovarian; SN12C renal; TK-10 renal; SK-MEL-2 melanoma; NCI/ADR-RES ovarian.
What all share (experiment): NCI tumour cell line growth inhibition, 48 h

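Interpolation was linear, between the two tested concentrations surrounding the appropriate level; five concentrations were tested over 48 hours in 96-well plates. GI50: concentration for 50% inhibition of growth. At the TGI there is no net growth.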 Some results are limits rather than exact numbers.

As to `Cn1c(=O)c2[nH]c(Nc3cccc(Cl)c3)nc2n(C)c1=O`, the TGI in the experiment with 786-0 renal was more than 10 µM; with COLO 205 colon, more than 10 µM; in the experiment on HCT-15 colon, more than 10 µM; in the experiment on LOX IMVI melanoma, more than 10 µM; with RXF 393 renal, 8.76 µM; in the experiment on SF-295 CNS, more than 10 µM. Further, the TGI in the experiment on SK-OV-3 ovarian, in the experiment on SN12C renal and in the experiment with TK-10 renal was more than 10 µM throughout.

Regarding `CCCC/C=C1\CCC(CN2CCCC2)C1=O` (centres undefined), the TGI came out at 3.62 µM in the experiment with 786-0 renal; 26.1 µM in the experiment with COLO 205 colon; 11.2 µM in the experiment with HCT-15 colon; 21.7 µM in the experiment with LOX IMVI melanoma; 36.4 µM in the experiment with SF-295 CNS; 29.8 µM in the experiment with SK-MEL-2 melanoma. Moreover, the TGI with SK-OV-3 ovarian is 97.1 µM; in the experiment on SN12C renal it was 32 µM; in the experiment with TK-10 renal it was 6.3 µM.

Turning to `Oc1ccc(C[C@@H]2CN[C@H](Cc3ccc(O)c(Br)c3)CN2)cc1`, the TGI with 786-0 renal, with COLO 205 colon, in the experiment with HCT-15 colon, in the experiment with NCI/ADR-RES ovarian, with RXF 393 renal and in the experiment on SF-295 CNS was more than 100 µM each time. Also, the TGI in the experiment on SK-MEL-2 melanoma, with SK-OV-3 ovarian, in the experiment on SN12C renal and with TK-10 renal was more than 100 µM each time.

Take `CC1OC2OC3C(OCC(O)C3O)OC(=O)[C@]34CCC(C)(C)CC3C3=CCC5[C@@]6(C)C[C@H](O)[C@H](OC7OC(CO)C(O)C(O)C7OC7OC(COC(=O)CC(C)(O)CC(=O)OC1C(OC1OC(CO)C(O)C(O)C1O)C2O)C(O)C(O)C7O)[C@@](C)(CO)C6CC[C@@]5(C)[C@]3(C)CC4` (some centres undefined): the TGI with 786-0 renal was determined as 11.9 µM; with COLO 205 colon, 4.52 µM; with HCT-15 colon, 15.7 µM; in the experiment on LOX IMVI melanoma, 12.1 µM; in the experiment on NCI/ADR-RES ovarian, 11.7 µM; in the experiment with SF-295 CNS, 3.72 µM. Besides, the TGI in the experiment with SK-MEL-2 melanoma is 3.37 µM; in the experiment on SK-OV-3 ovarian, 22.4 µM; with SN12C renal it was 14.8 µM; in the experiment on TK-10 renal, 7.92 µM.

`CCC(C)C(NC(=O)C(CCCC[N+](=N)N)NC(=O)C(CCCC[N+](=N)N)NC(=O)c1ccc(OC)cc1)C(=O)NC(CCCC[N+](=N)N)C(=O)N1CCCC1C(=O)NC(CCCCN)C(=O)NC(CC(C)C)C(N)=O` (centres undefined): the TGI with 786-0 renal, in the experiment with COLO 205 colon, in the experiment with HCT-15 colon, in the experiment on LOX IMVI melanoma, in the experiment on NCI/ADR-RES ovarian and with RXF 393 renal was more than 100 µM each time. Further, the TGI in the experiment on SF-295 CNS, with SK-OV-3 ovarian, in the experiment with SN12C renal and with TK-10 renal was more than 100 µM throughout.

Take `NC(=O)c1ncn(C2OC(CO)C(O)C2O)c1NC(=S)NC(=O)c1ccccc1` (centres undefined): the TGI in the experiment on 786-0 renal, with COLO 205 colon, in the experiment on LOX IMVI melanoma, with RXF 393 renal, with SF-295 CNS and with SK-MEL-2 melanoma was more than 100 µM each time. In addition, the TGI with SK-OV-3 ovarian, in the experiment on SN12C renal and in the experiment on TK-10 renal was more than 100 µM each time.

As for `O=C(/C=C/CC(O)(c1ccccc1)c1ccccc1)Nc1ccccc1Cl`, the TGI with COLO 205 colon, in the experiment on HCT-15 colon, with SF-295 CNS, in the experiment with SK-MEL-2 melanoma, in the experiment on SK-OV-3 ovarian and with SN12C renal was more than 100 µM throughout. The molecule further returned a TGI with TK-10 renal of more than 100 µM.

Take `O=C(O)C12C3C4(C(=O)O)C1C1(C(=O)O)C2C3(C(=O)O)C41` (centres undefined): the TGI with 786-0 renal, in the experiment with COLO 205 colon, in the experiment with HCT-15 colon, in the experiment with LOX IMVI melanoma, in the experiment on NCI/ADR-RES ovarian and in the experiment with SF-295 CNS was more than 100 µM throughout. The TGI in the experiment on SK-MEL-2 melanoma, in the experiment with SN12C renal and in the experiment on TK-10 renal was more than 100 µM in each case.

With `C[C@@](Br)(C(=O)O)[C@H](Br)C(=O)O`, the TGI in the experiment with 786-0 renal, in the experiment with COLO 205 colon, with HCT-15 colon, in the experiment with LOX IMVI melanoma, with NCI/ADR-RES ovarian and in the experiment with RXF 393 renal was more than 100 µM in each case. In addition, the TGI in the experiment with SF-295 CNS, with SK-OV-3 ovarian, with SN12C renal and with TK-10 renal was more than 100 µM each time.

In the case of `O=C1CN(c2ccccc2)C(=O)C1C(=O)Nc1ccc(Cl)c(Cl)c1` (centres undefined), the TGI in the experiment on COLO 205 colon stood at 20.4 µM; in the experiment with HCT-15 colon, 13.1 µM; in the experiment with SF-295 CNS, 14 µM; with SK-OV-3 ovarian it was 15.8 µM; in the experiment with SN12C renal, 17.1 µM; in the experiment with TK-10 renal, 18.5 µM.

As for `CCc1ccc(OCc2ccccc2C(=O)Nc2ccc3nc(C)cc(N)c3c2)cc1`, the GI50 is 0.24 µM with COLO 205 colon; 1.75 µM in the experiment with NCI/ADR-RES ovarian; 1.32 µM with RXF 393 renal; 1.65 µM in the experiment with SF-295 CNS; 1.79 µM in the experiment on SK-MEL-2 melanoma; 1.64 µM in the experiment on SK-OV-3 ovarian. The figures for the GI50 in the experiment on SN12C renal and in the experiment with TK-10 renal were 1.51 µM and 1.68 µM, respectively. The TGI was found to be 0.692 µM in the experiment with COLO 205 colon; 4.2 µM in the experiment on NCI/ADR-RES ovarian; 2.75 µM in the experiment with RXF 393 renal; 3.13 µM in the experiment on SF-295 CNS; 3.39 µM in the experiment on SK-MEL-2 melanoma; 3 µM in the experiment with SK-OV-3 ovarian. Besides, the figures for the TGI in the experiment with SN12C renal and in the experiment with TK-10 renal were 3.02 µM and 3.17 µM, respectively.

For the molecule `COc1cccc(Nc2nc3c([nH]2)c(=O)n(C)c(=O)n3C)c1`, the TGI in the experiment with 786-0 renal, with COLO 205 colon, in the experiment with HCT-15 colon, with LOX IMVI melanoma, in the experiment with RXF 393 renal and with SF-295 CNS was more than 10 µM throughout. Further, the TGI in the experiment on SK-OV-3 ovarian, in the experiment on SN12C renal and in the experiment on TK-10 renal was more than 10 µM throughout.

On to `CCOP(=O)(CC1OC(CO)C(O)C1O)OCC` (centres undefined), for which the TGI in the experiment with 786-0 renal, in the experiment on COLO 205 colon, with HCT-15 colon, with LOX IMVI melanoma, in the experiment on RXF 393 renal and with SF-295 CNS was more than 100 µM in each case. In addition, the TGI in the experiment on SK-MEL-2 melanoma, with SK-OV-3 ovarian, with SN12C renal and with TK-10 renal was more than 100 µM throughout.
